Measurements as given in patent publication US20030095958A1, “Inhibitors of bace” (priority 2001, published 2003).

Target: BACE (Homo sapiens, UniProt P56817)
Experiment: Ki Determination for the Inhibition of BACE (FS-1 peptide fluorescence cleavage assay)
Format: biochemical
Details: apparent Ki; 50 nM BACE, 10 μM FS-1 substrate, 0.1M sodium acetate pH 4.5
Summary of the method: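 Human BACE (50 nM) was preincubated 15 min at room temperature with compound (2% DMSO) in 0.1 M sodium acetate pH 4.5, then 10 μM FS-1 peptide was added. Cleavage was followed by fluorescence (ex 355/em 495 nm), and apparent Ki came from fitting to the integrated competitive tight-binding inhibition equation.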

Sequence of BACE (P56817 46-501): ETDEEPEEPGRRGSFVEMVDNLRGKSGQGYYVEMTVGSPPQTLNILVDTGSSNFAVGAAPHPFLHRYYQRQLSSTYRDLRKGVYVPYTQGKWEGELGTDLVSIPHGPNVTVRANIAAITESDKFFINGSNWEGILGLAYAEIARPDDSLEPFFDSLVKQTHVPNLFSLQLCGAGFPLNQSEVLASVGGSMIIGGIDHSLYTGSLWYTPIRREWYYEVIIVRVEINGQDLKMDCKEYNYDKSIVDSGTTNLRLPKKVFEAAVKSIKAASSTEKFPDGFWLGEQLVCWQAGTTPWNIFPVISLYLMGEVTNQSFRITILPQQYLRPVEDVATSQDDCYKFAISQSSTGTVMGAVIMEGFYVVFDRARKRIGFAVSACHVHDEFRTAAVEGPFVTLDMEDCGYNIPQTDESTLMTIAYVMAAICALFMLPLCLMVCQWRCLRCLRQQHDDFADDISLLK

Ki [µM] | Structure (SMILES)
< 3 | Cc1c(COc2ccc3c(c2)c2c(n3C(=O)c3cccc4ccccc34)CNCC2)cccc1C(F)(F)F [Compound 523, [6-(2-Methyl-3-trifluoromethyl-benzyloxy)-1,2,3,4-tetrahydro-b-carbolin-9-yl]-naphthalen-1-yl-methanone]
3 to 30 | COc1cc(NC(=O)c2ccc(COc3ccccc3C(F)(F)F)cc2C2=CCNCC2)cc2ccccc12 [Compound 309, N-(4-Methoxy-naphthalen-2-yl)-2-(1,2,3,6-tetrahydro-pyridin-4-yl)-4-(2-trifluoromethyl-phenoxyraethyl)-benzamide]
3 to 30 | COC(=O)c1cc(C2=CCNCC2)c(COc2ccccc2C(F)(F)F)cc1C1=CCNCC1 [Compound 382, 2,5-Bis-(1,2,3,6-tetrahydro-pyridin-4-yl)-4-(2-trifluoromethyl-phenoxymethyl)-benzoic acid methyl ester]
< 3 | FC(F)(F)c1ccccc1OCc1cc(-c2cc3ccccc3o2)c(COc2ccccc2C(F)(F)F)cc1C1=CCNCC1 [Compound 357, 4-[4-Benzofuran-2-yl-2,5-bis-(2-trifluoromethyl-phenoxymethyl)-phenyl]-1,2,3,6-tetrahydro-pyridine]
< 3 | O=C(Nc1cc(-c2ccc(Cl)cc2Cl)ccc1N1CCNCC1)c1cccc2ccccc12 [Compound 107, Naphthalene-1-carboxylic acid (2′,4′-dichloro-4-piperazin-1-yl-biphenyl-3-yl)-amide]
< 3 | FC(F)(F)c1ccccc1OCc1cc(-c2ccccc2C(F)(F)F)ccc1C1=CCNCC1 [Compound 375, 4-[2′-Trifluoromethyl-3-(2-trifluoromethyl-phenoxymethyl)-biphenyl-4-yl]-1,2,3,6-tetrahydro-pyridine]
< 3 | O=C(OCc1ccc(COc2ccccc2C(F)(F)F)cc1C1=CCNCC1)c1ccc2ccccc2c1 [Compound 313, Naphthalene-2-carboxylic acid 2-(1,2,3,6-tetrahydro-pyridin-4-yl)-4-(2-trifluoromethyl-phenoxymethyl)-benzyl ester]
< 3 | O=C(Nc1cc(-c2ccccc2)cc(COc2ccccc2C(F)(F)F)c1N1CCNCC1)c1nccc2ccccc12 [Compound 177, Isoquinoline-1-carboxylic acid [4-piperazin-1-yl-5-(2-trifluoromethyl-phenoxymethyl)-biphenyl-3-yl]-amide]
3 to 30 | O=C(Nc1cc(-c2cc(F)c(S(=O)(=O)NCc3ccccc3)cc2F)ccc1N1CCNCC1)c1cccc2ccccc12 [Compound 164, Naphthalene-1-carboxylic acid (4′-benzylsulfamoyl-2′,5′-difluoro-4-piperazin-1-yl-biphenyl-3-yl)-amide]
> 30 | O=C(C1CNCCC1c1ccc(COc2ccccc2C(F)(F)F)cc1)N1CCc2ccccc2C1 (stereo not drawn) [Compound 205, (3,4-Dihydro-1H-isoquinolin-2-yl)-{4-[4-(2-trifluoromethyl-phenoxymethyl)-phenyl]-piperidin-3-yl}-methanone]
3 to 30 | O=C(Nc1cc(-c2ccncc2)ccc1N1CCNCC1)c1cccc2ccccc12 [Compound 111, Naphthalene-1-carboxylic acid (2-piperazin-1-yl-5-pyridin-4-yl-phenyl)-amide]
< 3 | FC(F)(F)c1ccccc1OCc1cc(C2=CCNCC2)c(COc2ccccc2C(F)(F)F)cc1Br [Compound 333, 4-[4-Bromo-2,5-bis-(2-trifluoromethyl-phenoxymethyl)-phenyl]-1,2,3,6-tetrahydro-pyridine]
> 30 | O=C(Nc1cc(Br)ccc1N1CCNCC1)c1cccc2ccccc12 [Compound 118, Naphthalene-1-carboxylic acid (5-bromo-2-piperazin-1-yl-phenyl)-amide]
< 3 | FC(F)(F)c1cccc(COC2CNCC(COc3ccc4ccccc4c3)C2c2ccc(-c3ccccc3)cc2)c1 (stereo not drawn) [Compound 413]
< 3 | O=C(Nc1cc(F)c(-c2ccc(Cl)c(Cl)c2)cc1N1CCNCC1)c1cccc2ccccc12 [Compound 175, Naphthalene-1-carboxylic acid (3′,4′-dichloro-2-fluoro-5-piperazin-1-yl-biphenyl-4-yl)-amide]
